The subject of test [1] is 2F5 mAb. Nature of the test: SPR binding of 2F5 mAb to MPER peptide-liposomes with TLR adjuvants. As for the experimental part:
FIGS. 10A-10C. Interaction of 2F5 mAb with MPER peptide-liposomes conjugated to TLR adjuvants.
FIG. 21 Binding of BNAb 2F5 and 4E10 to MPER peptide-liposomes described in FIGS. 19-20. Synthetic MPER peptide-liposomes complexed to the indicated MPER peptide and TLR adjuvants (R848, Lipid A) were anchored on a BIAcore sencor ship (L1) and each mAb (2 μg/mL) injected over the surface. Binding shown is after subtraction of non-specific signal measured on a control liposome surface.

In another test the test system is Immunogen Peptides. The test can be described thus: NHP#91 Week 14 plasma binding to immunogen peptides by ELISA. The format is in vivo, Rhesus macaques. The note with it: NHP#91, Week 14, ELISA log AUC. An excerpt: (§1) Rhesus macaques were immunized in 5 groups for NHP#87 with the different MPER peptide liposomes. Group 5 animals were immunized with a swarm of all of the MPER peptide liposomes. 4 animals per group. NHP#91 was a study to compare two adjuvants. Group 1 had MPLA alone and Group2 had R848 alone. The immunogen for both groups was the original MPER656 peptide liposome. The idea was to compare group 1 and 2 from this study to group 4 from NHP#87 where the animals received both MPLA and R848.
NHP#91 and last group (656+MPLA+R848) is group 4 of NHP#87; Isolated plasma at Week 14 was screened for binding to each immunogen by ELISA. Plotted is the log area under the curve for binding for each individual monkey separated by group. Solid line indicates the average log AUC for each group.

The next test relates to MPER-Specific Proteins. The test can be described thus: NHP#91 Week 14 plasma binding to MPER-specific proteins by ELISA. The format is in vivo, Rhesus macaques. The note with it: NHP#91, Week 14, ELISA log AUC.
Text: as §1
NHP#91 and last group (656+MPLA+R848) is group 4 of NHP#87 (for all panels pre-immune substracted); Isolated plasma at Week 14 was screened for binding to each immunogen by ELISA. Plotted is the log area under the curve for binding for each individual monkey separated by group. Solid line indicates the average log AUC for each group.

Test [2] has as its system 2F5 mAb. As to conditions: for 2F5 mAb binding response: background subtracted, 10 seconds after the injection was stopped, peptides anchored to liposomes. As for the experimental part: FIGS. 6A and 6B. […] FIG. 6A. […] FIG. 6B.
SPR binding assays were performed on a BIAcore 3000 (BIAcore Inc, Piscattaway, N.J.) maintained at 20° C. as previously described (Alam et al, J. Immunol. 178:4424-4435 (2007)). […] Specific binding responses of mAb binding were obtained following subtraction of non-specific binding on the scrambled 2F5 peptide surface.

The record followed here is US10076567B2, “MPER-liposome conjugates and uses thereof” (Duke University, priority 2013, dated 2018).

Regarding “NEKDLLALDSWKNLWNWFSITKWLWYIK [MPER656.2]”, the “binding of 2F5 mAb to peptide-liposome construct” value with 2F5 mAb [1] is “lack of binding”. As to Monophosphoryl Lipid A [MPLA], the “plasma binding to immunogen peptides, adjuvant comparison” value in the test on Immunogen Peptides is given as “better than R848”. In the test with MPER-Specific Proteins, the “plasma binding to MPER-specific proteins, adjuvant comparison” value is recorded as “better than R848”. Regarding “QQEKNEQELLELDKWASSWNYKRWIILGLNKIVRMYS-biotin”, in the test on 2F5 mAb [2], the “off-rate of the mAb 2F5-peptide liposome complex” value is on record as “significantly slower off-rates” and the “2F5 mAb binding response” value is 616.7 response unit. Turning to “QQEKNEQELLELDKWASLWNYKRWIILGLNKIVRMYS-biotin [consensus 2F5 epitope]”, the “2F5 mAb binding response” value in the test with 2F5 mAb [2] is 494.6 response unit.
